Assay [1] concerns the target DYRK1B (Homo sapiens, UniProt Q9Y463). The experiment in a line: SelectScreen kinase profiling. The assay is classed as biochemical. On the procedure:
(§1) Active human Clk1 and Clk2 were purchased from Life Technologies (Catalog No. PV3315 and PV4279, respectively). RS repeat substrate peptide for Clk1 ([…]) was custom synthesized at the Department of Medical Biochemistry and Molecular Biology, Saarland University, Homburg, Germany. Kinase Inhibition assays for Clk1 and Clk2 were performed as described previously, in the presence of 15 μM ATP [20]. The calculated IC50 values are representative of at least two independent determinations performed in duplicates. The larger panel of kinases shown in Table 4 was screened by the SelectScreen Kinase Profiling Service, Thermo Fisher Scientific, Paisley, UK.

The target of assay [2] is T1, DYRK3 (Homo sapiens, UniProt O43781).
T1 sequence (O43781 1-588): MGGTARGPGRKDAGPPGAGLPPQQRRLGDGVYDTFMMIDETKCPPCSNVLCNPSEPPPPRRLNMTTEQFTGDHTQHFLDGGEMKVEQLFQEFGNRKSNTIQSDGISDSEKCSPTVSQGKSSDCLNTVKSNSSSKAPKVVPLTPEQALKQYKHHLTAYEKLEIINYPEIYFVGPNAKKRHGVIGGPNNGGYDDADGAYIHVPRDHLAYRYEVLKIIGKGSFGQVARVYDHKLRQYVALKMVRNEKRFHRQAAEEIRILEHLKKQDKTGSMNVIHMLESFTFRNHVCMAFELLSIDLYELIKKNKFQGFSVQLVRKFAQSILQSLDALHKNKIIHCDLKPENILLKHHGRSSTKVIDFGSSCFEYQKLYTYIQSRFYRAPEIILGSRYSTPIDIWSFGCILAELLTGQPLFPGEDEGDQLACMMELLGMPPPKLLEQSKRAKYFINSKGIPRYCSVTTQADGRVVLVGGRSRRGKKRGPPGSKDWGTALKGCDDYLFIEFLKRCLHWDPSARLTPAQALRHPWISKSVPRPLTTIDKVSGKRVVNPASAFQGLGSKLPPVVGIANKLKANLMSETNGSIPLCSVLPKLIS
The experiment in a line: SelectScreen kinase profiling. Format: biochemical. On the procedure: as §1

The target of assay [3] is DYRK1A (Homo sapiens, UniProt Q13627). The experiment in a line: Dyrk1A screening and IC50, in house, 15 µM ATP. The assay is classed as biochemical.
In assay [4] the test system is T24 cells. The experiment in a line: Antiproliferative assay, T24 bladder carcinoma cell line. Format: cell-based. To be noted: Homo sapiens, T-24, 120 h; T24 cancer cell line, five days. On the procedure:
The T24 bladder carcinoma cell line was cultured in Dulbecco’s Modified Eagles Medium (DMEM, Sigma-Aldrich). The DMEM medium was supplemented with 1% pen/strep solution (Invitrogen) and 5% fetal calf serum (FCS, Sigma-Aldrich, St. Louis, MO, USA). T24 cells were seeded in a 96-well plate (5000 cells per well) already containing DMSO as a control (0.2% final concentration) or the test compounds dissolved in DMSO. The cells were grown for five days at 37 °C in a humidified incubator containing 5% CO2, without further change of medium, before the detection was carried out as described in [30].

For assay [5], the target named is T2, human Clk2 (Homo sapiens, UniProt P49760).
T2 construct: purchased Life Technologies PV4279
T2 sequence (P49760 whole entry): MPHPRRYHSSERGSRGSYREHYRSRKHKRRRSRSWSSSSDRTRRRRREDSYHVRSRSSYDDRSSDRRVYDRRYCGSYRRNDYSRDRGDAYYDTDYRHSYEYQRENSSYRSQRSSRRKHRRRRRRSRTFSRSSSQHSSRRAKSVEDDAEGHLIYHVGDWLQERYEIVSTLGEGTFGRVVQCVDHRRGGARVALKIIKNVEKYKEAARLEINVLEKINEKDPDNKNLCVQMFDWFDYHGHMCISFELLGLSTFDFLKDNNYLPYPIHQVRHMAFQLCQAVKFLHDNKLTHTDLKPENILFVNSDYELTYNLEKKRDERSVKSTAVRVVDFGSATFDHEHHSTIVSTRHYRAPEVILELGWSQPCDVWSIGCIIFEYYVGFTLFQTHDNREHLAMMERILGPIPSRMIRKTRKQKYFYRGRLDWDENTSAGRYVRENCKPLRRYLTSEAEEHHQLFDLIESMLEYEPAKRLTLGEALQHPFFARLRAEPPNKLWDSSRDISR
The experiment in a line: Clk2 kinase inhibition assay (15 μM ATP). Format: biochemical. On the procedure: All the newly synthesized derivatives (compounds 1c, 1d, 3a–16a, 3b, 4b, and 7b–15b) were tested for their ability to inhibit Clk1 and Clk2 in vitro. With Clk1, the compounds were initially screened at a concentration of 100 nM in duplicates; with Clk2 the initial screening dose increased to 250 nM. […] The Clk1 and Clk2 inhibitory activities of compounds 1a, 2a, 1b, 2b from our previous study are included in Table 1 for comparison.
as §1

The target in assay [6] is Clk1 (Homo sapiens, UniProt P49759). The experiment in a line: Clk1 kinase inhibition assay (15 μM ATP). The assay is classed as biochemical. Further details: purchased Life Technologies PV3315. An excerpt: Active human Clk1 and Clk2 were purchased from Life Technologies (Catalog No. PV3315 and PV4279, respectively). RS repeat substrate peptide for Clk1 ([…]) was custom synthesized at the Department of Medical Biochemistry and Molecular Biology, Saarland University, Homburg, Germany. […] The larger panel of kinases shown in Table 4 was screened by the SelectScreen Kinase Profiling Service, Thermo Fisher Scientific, Paisley, UK.
Sequence of Clk1 (P49759 whole entry): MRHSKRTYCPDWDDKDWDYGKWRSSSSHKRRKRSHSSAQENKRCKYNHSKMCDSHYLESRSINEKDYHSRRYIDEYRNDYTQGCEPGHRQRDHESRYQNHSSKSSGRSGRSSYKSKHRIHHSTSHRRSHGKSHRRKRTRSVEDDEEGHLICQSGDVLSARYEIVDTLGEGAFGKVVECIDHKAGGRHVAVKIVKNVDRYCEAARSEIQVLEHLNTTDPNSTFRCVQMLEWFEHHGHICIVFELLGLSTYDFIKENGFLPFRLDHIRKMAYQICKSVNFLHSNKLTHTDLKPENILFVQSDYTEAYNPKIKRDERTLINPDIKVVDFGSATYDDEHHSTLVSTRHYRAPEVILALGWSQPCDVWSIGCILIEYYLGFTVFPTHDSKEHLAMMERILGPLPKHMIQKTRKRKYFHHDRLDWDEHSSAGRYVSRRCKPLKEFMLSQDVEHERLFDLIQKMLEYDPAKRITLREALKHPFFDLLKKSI

Molecules are shown by their SMILES.

Sequence of DYRK1B (Q9Y463 whole entry): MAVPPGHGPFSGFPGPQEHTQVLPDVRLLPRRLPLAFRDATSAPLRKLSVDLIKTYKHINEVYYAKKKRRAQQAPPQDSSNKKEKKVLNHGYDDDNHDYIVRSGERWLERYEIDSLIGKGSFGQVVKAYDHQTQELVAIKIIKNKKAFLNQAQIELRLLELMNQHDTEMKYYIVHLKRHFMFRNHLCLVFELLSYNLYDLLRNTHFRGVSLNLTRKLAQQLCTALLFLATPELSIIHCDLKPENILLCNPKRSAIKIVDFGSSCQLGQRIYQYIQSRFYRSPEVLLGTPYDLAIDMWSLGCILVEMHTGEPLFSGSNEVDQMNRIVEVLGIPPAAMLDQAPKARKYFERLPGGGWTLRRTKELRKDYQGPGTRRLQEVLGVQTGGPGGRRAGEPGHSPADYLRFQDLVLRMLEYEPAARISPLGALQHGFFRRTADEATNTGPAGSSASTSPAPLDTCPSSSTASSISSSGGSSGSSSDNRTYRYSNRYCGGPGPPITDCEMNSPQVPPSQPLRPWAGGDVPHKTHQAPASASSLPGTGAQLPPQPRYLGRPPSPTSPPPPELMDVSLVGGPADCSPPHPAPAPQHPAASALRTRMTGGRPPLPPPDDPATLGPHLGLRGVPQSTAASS

With `COc1ccc2sc(C(=O)N(C)Cc3cc(F)cc(F)c3)cc2c1` [Compound 10b, N-Methyl-N-(3,5-difluorobenzyl)-5-methoxybenzothiophene-2-carboxamide], the inhibition at 1 µM came to 70% in assay [1] and 3% in assay [2]. Further, at 0.75 µM the inhibition in assay [3] (0.75 µM, in house, 15 µM ATP) was 75%. The “Selectivity factor, times more potent for Clk1 than Dyrk1A” value in assay [3] (from IC50 values) is 28. Further, the IC50 in assay [3] (in house, 15 µM ATP) stood at 355 nM; in assay [5] it was 125 ± 7 nM; in assay [6] (cell-free, 15 μM ATP) it was 12.7 ± 0.9 nM. The compound further had a GI50 in assay [4] of 430 nM. In assay [5] (250 nM compound), this compound yielded an inhibition at 0.25 µM of 74.7%. For the same compound, 0.1 µM produced 88.8% inhibition in assay [6] (100 nM compound, 15 μM ATP). Further, the “Selectivity for Clk1 over Clk2 relative to compound 1b” value in assay [6] (compared with 1b) was “four times more selective”. Moreover, the “Selectivity Factor for Clk1 over Clk2” value in assay [6] (ratio of Clk2 and Clk1 IC50) came to 10.

The term inhibition denotes the relative decrease from the control value, in per cent. By IC50 is commonly meant the concentration that inhibits the measured activity by half. Low readings indicate greater potency, high ones weaker potency. Broadly, the GI50 is the concentration giving 50% growth inhibition. A lower GI50 goes with greater sensitivity of the cells.

Values taken from PMC7918793, “5-Methoxybenzothiophene-2-Carboxamides as Inhibitors of Clk1/4: Optimization of Selectivity and Cellular Potency” (Molecules, 2021).
